Values of other authors as cited in patent US7850723B1, “Method and apparatus for patient temperature control employing titration of therapy using EEG signals” (Innercool Therapies, Inc., priority 2005, dated 2010).

Assays:
clots [1] = settings: clots treated with UK at 4° C. and 28° C.; heating to 28° C.
[2] = in vivo
clots [3] = settings: clots treated with plasminogen (2 mg) and SK (100 IU) in 15 ml PBS; clot temperature raised from 24° C. to 37° C.

Compound: urokinase [UK]
- fibrinolytic activity (conversion of plasminogen to plasmin) (clots [1]): complete conversion of all plasminogen to plasmin

Compound: CCOC(=O)C1(c2ccccc2)CCN(C)CC1 [Meperidine]
- decrease of shivering threshold relative to vasoconstriction threshold [2]: twice as much

Compound: streptokinase [SK]
- fibrinolytic activity (clots [3]): heating enhanced the fibrinolytic activity
